pEC50: −log10 of the molar value. Numbered stars: 1 amine (or outer) side, 2 acyl side, 3 side chain; on linkers, the order of the positions; unused ones are H or OH. Side chains are listed from the residue outwards. Peptide text beside a SMILES is read from it. * marks the point of attachment. C18 diacid = O=C(O)CCCCCCCCCCCCCCCCC(=O)*; C16 diacid = O=C(O)CCCCCCCCCCCCCCC(=O)*; γGlu = O=C(O)[C@H](CCC(=O)[*:2])N[*:1]; AEEA = NCCOCCOCC(=O)O
Legend:
[1] = target: T1, glucagon receptor (Homo sapiens, UniProt P47871); assay: Assay (I) Glucagon activity (cAMP biosensor, FLIPR); type: cell-based
T1 construct: expressed in transfected cells
T1 sequence (P47871 26-477): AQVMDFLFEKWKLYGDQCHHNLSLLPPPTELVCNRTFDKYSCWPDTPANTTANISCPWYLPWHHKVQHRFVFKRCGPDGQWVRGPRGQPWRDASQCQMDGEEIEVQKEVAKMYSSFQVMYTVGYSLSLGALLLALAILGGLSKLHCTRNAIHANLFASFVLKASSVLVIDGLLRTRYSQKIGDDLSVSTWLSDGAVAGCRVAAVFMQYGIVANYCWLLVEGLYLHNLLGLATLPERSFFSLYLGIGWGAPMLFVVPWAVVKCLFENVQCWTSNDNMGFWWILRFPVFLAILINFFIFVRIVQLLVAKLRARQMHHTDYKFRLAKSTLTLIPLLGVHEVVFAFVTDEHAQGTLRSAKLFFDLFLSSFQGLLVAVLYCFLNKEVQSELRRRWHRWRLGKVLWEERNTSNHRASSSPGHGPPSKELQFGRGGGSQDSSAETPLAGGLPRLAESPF

[2] = Assay (X) Chemical stability assessment by RP-UPLC; type: physicochemical; settings: pH 8.15, 14 days at 37° C. vs 5° C., 333 μM

Row | SMILES | pEC50 [1] | Chemical stability [Purity loss/14 days 37 C.] [2]
1 | CC(C)C[C@H](NC(=O)[C@H](Cc1ccc(O)cc1)NC(=O)[C@H](CCCCN)NC(=O)[C@H](CO)NC(=O)[C@H](Cc1ccc(O)cc1)NC(=O)[C@H](CC(=O)O)NC(=O)[C@H](CO)NC(=O)[C@@H](NC(=O)[C@H](Cc1ccccc1)NC(=O)[C@@H](NC(=O)CNC(=O)[C@H](CCC(N)=O)NC(=O)[C@H](CO)NC(=O)[C@@H](N)Cc1c[nH]cn1)[C@@H](C)O)[C@@H](C)O)C(=O)N[C@@H](CCC(=O)O)C(=O)N[C@@H](CO)C(=O)N[C@@H](CCCNC(=N)N)C(=O)N[C@@H](CCCNC(=N)N)C(=O)N[C@@H](C)C(=O)N[C@@H](CCC(N)=O)C(=O)N[C@@H](CC(=O)O)C(=O)N[C@@H](Cc1ccccc1)C(=O)N[C@H](C(=O)N[C@@H](CCCCNC(=O)CC[C@H](NC(=O)CC[C@H](NC(=O)COCCOCCNC(=O)COCCOCCNC(=O)CC[C@H](NC(=O)CCCCCCCCCCCCCCC(=O)O)C(=O)O)C(=O)O)C(=O)O)C(=O)N[C@@H](Cc1c[nH]c2ccccc12)C(=O)N[C@@H](CC(C)C)C(=O)N[C@@H](CC(C)C)C(=O)N[C@@H](CO)C(=O)N[C@H](C(=O)O)[C@@H](C)O)C(C)C [Example 69, N^ε24-[(4S)-4-carboxy-4-[[(4S)-4-carboxy-4-[[2-[2-[2-[[2-[2-[2-[[(4S)-4-carboxy-4-(15-carboxypentadecanoylamino)butanoyl]amino]ethoxy]ethoxy]acetyl]amino]ethoxy]ethoxy]acetyl]amino]butanoyl]amino]butanoyl]-[Glu15,Lys24,Leu27,Ser28]-Glucagon] | 10.15 | 8.2%
2 | CC(C)C[C@H](NC(=O)[C@H](Cc1c[nH]c2ccccc12)NC(=O)[C@H](CCCCNC(=O)CC[C@H](NC(=O)CC[C@H](NC(=O)COCCOCCNC(=O)COCCOCCNC(=O)CC[C@H](NC(=O)CCCCCCCCCCCCCCCCC(=O)O)C(=O)O)C(=O)O)C(=O)O)NC(=O)[C@@H](NC(=O)[C@H](Cc1ccccc1)NC(=O)[C@H](CC(=O)O)NC(=O)[C@H](CCC(N)=O)NC(=O)[C@H](C)NC(=O)[C@H](CCCNC(=N)N)NC(=O)[C@H](CCCNC(=N)N)NC(=O)[C@@H](NC(=O)[C@H](CC(=O)O)NC(=O)[C@H](CC(C)C)NC(=O)[C@H](Cc1ccc(O)cc1)NC(=O)[C@H](CCCCN)NC(=O)[C@H](CO)NC(=O)[C@H](Cc1ccc(O)cc1)NC(=O)[C@H](CC(=O)O)NC(=O)[C@H](CO)NC(=O)[C@@H](NC(=O)[C@H](Cc1ccccc1)NC(=O)[C@@H](NC(=O)CNC(=O)[C@H](CCC(N)=O)NC(=O)[C@H](CO)NC(=O)[C@@H](N)Cc1c[nH]cn1)[C@@H](C)O)[C@@H](C)O)[C@@H](C)O)C(C)C)C(=O)N[C@@H](CC(C)C)C(=O)N[C@@H](CO)C(=O)N[C@H](C(N)=O)[C@@H](C)O [Example 39, N^ε24-[(4S)-4-carboxy-4-[[(4S)-4-carboxy-4-[[2-[2-[2-[[2-[2-[2-[[(4S)-4-carboxy-4-(17-carboxyheptadecanoylamino)butanoyl]amino]ethoxy]ethoxy]acetyl]amino]ethoxy]ethoxy]acetyl]amino]butanoyl]amino]butanoyl]-[Thr16,Lys24,Leu27,Ser28]-Glucagon amide] | 10.41 | 7.8%
3 | CC(C)C[C@H](NC(=O)[C@H](CC(C)C)NC(=O)[C@H](Cc1c[nH]c2ccccc12)NC(=O)[C@H](CCCCNC(=O)CC[C@H](NC(=O)CC[C@H](NC(=O)COCCOCCNC(=O)COCCOCCNC(=O)CC[C@H](NC(=O)CCCCCCCCCCCCCCC(=O)O)C(=O)O)C(=O)O)C(=O)O)NC(=O)[C@@H](NC(=O)[C@H](Cc1ccccc1)NC(=O)[C@H](CC(=O)O)NC(=O)[C@H](CCC(N)=O)NC(=O)[C@H](C)NC(=O)[C@H](CCCNC(=N)N)NC(=O)[C@H](CCCNC(=N)N)NC(=O)[C@H](CC(C)C)NC(=O)[C@H](CC(=O)O)NC(=O)[C@H](CC(C)C)NC(=O)[C@H](Cc1ccc(O)cc1)NC(=O)[C@H](CCCNC(=N)N)NC(=O)[C@H](CO)NC(=O)[C@H](Cc1ccc(O)cc1)NC(=O)[C@H](CC(=O)O)NC(=O)[C@H](CO)NC(=O)[C@@H](NC(=O)[C@H](Cc1ccccc1)NC(=O)[C@@H](NC(=O)CNC(=O)[C@H](CCC(N)=O)NC(=O)[C@H](CO)NC(=O)[C@@H](N)Cc1c[nH]cn1)[C@@H](C)O)[C@@H](C)O)C(C)C)C(=O)NCC(=O)N[C@H](C(=O)O)[C@@H](C)O [Example 90, N^ε24-[(4S)-4-carboxy-4-[[(4S)-4-carboxy-4-[[2-[2-[2-[[2-[2-[2-[[(4S)-4-carboxy-4-(15-carboxypentadecanoylamino)butanoyl]amino]ethoxy]ethoxy]acetyl]amino]ethoxy]ethoxy]acetyl]amino]butanoyl]amino]butanoyl]-[Arg12,Leu16,Lys24,Leu27,Gly28]-Glucagon] (H-HSQGTFTSDYSRYLDLRRAQDFVK([γGlu-γGlu-AEEA-AEEA-γGlu-C16 diacid])WLLGT-OH) | 10.05 | 5.4%
4 | CC(C)C[C@H](NC(=O)[C@H](Cc1c[nH]c2ccccc12)NC(=O)[C@H](CCCCNC(=O)CC[C@H](NC(=O)CC[C@H](NC(=O)CC[C@H](NC(=O)CC[C@H](NC(=O)CCCCCCCCCCCCCCCCC(=O)O)C(=O)O)C(=O)O)C(=O)O)C(=O)O)NC(=O)[C@@H](NC(=O)[C@H](Cc1ccccc1)NC(=O)[C@H](CC(=O)O)NC(=O)[C@H](CCC(N)=O)NC(=O)[C@H](C)NC(=O)[C@H](CCCNC(=N)N)NC(=O)[C@H](CCCNC(=N)N)NC(=O)[C@@H](NC(=O)[C@H](CC(=O)O)NC(=O)[C@H](CC(C)C)NC(=O)[C@H](Cc1ccc(O)cc1)NC(=O)[C@H](CCCCN)NC(=O)[C@H](CO)NC(=O)[C@H](Cc1ccc(O)cc1)NC(=O)[C@H](CC(=O)O)NC(=O)[C@H](CO)NC(=O)[C@@H](NC(=O)[C@H](Cc1ccccc1)NC(=O)[C@@H](NC(=O)CNC(=O)[C@H](CCC(N)=O)NC(=O)[C@H](CO)NC(=O)[C@@H](N)Cc1c[nH]cn1)[C@@H](C)O)[C@@H](C)O)C(C)C)C(C)C)C(=O)N[C@@H](CC(C)C)C(=O)N[C@@H](CO)C(=O)N[C@H](C(=O)O)[C@@H](C)O [Example 78, N^ε24-[(4S)-4-carboxy-4-[[(4S)-4-carboxy-4-[[(4S)-4-carboxy-4-[[(4S)-4-carboxy-4-(17-carboxyheptadecanoylamino)butanoyl]amino]butanoyl]amino]butanoyl]amino]butanoyl]-[Val16,Lys24,Leu27,Ser28]-Glucagon] | 9.87 | 4.3%
5 | CC(C)C[C@H](NC(=O)[C@H](Cc1ccc(O)cc1)NC(=O)[C@H](CCCCN)NC(=O)[C@H](CO)NC(=O)[C@H](Cc1ccc(O)cc1)NC(=O)[C@H](CC(=O)O)NC(=O)[C@H](CO)NC(=O)[C@@H](NC(=O)[C@H](Cc1ccccc1)NC(=O)[C@@H](NC(=O)CNC(=O)[C@H](CCC(N)=O)NC(=O)[C@H](CO)NC(=O)[C@@H](N)Cc1c[nH]cn1)[C@@H](C)O)[C@@H](C)O)C(=O)N[C@@H](CC(=O)O)C(=O)N[C@@H](CCC(=O)O)C(=O)N[C@@H](CCCNC(=N)N)C(=O)N[C@@H](CCCNC(=N)N)C(=O)N[C@@H](C)C(=O)N[C@@H](CCC(N)=O)C(=O)N[C@@H](CC(=O)O)C(=O)N[C@@H](Cc1ccccc1)C(=O)N[C@H](C(=O)N[C@@H](CCCCNC(=O)CC[C@H](NC(=O)CC[C@H](NC(=O)COCCOCCNC(=O)COCCOCCNC(=O)CC[C@H](NC(=O)CCCCCCCCCCCCCCCCC(=O)O)C(=O)O)C(=O)O)C(=O)O)C(=O)N[C@@H](Cc1c[nH]c2ccccc12)C(=O)N[C@@H](CC(C)C)C(=O)N[C@@H](CC(C)C)C(=O)N[C@@H](CO)C(=O)N[C@H](C(=O)O)[C@@H](C)O)C(C)C [Example 41, N^ε24-[(4S)-4-carboxy-4-[[(4S)-4-carboxy-4-[[2-[2-[2-[[2-[2-[2-[[(4S)-4-carboxy-4-(17-carboxyheptadecanoylamino)butanoyl]amino]ethoxy]ethoxy]acetyl]amino]ethoxy]ethoxy]acetyl]amino]butanoyl]amino]butanoyl]-[Glu16,Lys24,Leu27,Ser28]-Glucagon] | 9.89 | 7.3%
6 | CC(C)C[C@H](NC(=O)[C@H](Cc1c[nH]c2ccccc12)NC(=O)[C@H](CCCCNC(=O)CC[C@H](NC(=O)COCCOCCNC(=O)COCCOCCNC(=O)CC[C@H](NC(=O)CC[C@H](NC(=O)CCCCCCCCCCCCCCCCC(=O)O)C(=O)O)C(=O)O)C(=O)O)NC(=O)[C@@H](NC(=O)[C@H](Cc1ccccc1)NC(=O)[C@H](CCC(=O)O)NC(=O)[C@H](CCC(N)=O)NC(=O)[C@H](C)NC(=O)[C@H](CCCNC(=N)N)NC(=O)[C@H](CCCNC(=N)N)NC(=O)[C@@H](NC(=O)[C@H](CC(=O)O)NC(=O)[C@H](CC(C)C)NC(=O)[C@H](Cc1ccc(O)cc1)NC(=O)[C@H](CCCNC(=N)N)NC(=O)[C@H](CO)NC(=O)[C@@H](NC(=O)[C@H](CC(=O)O)NC(=O)[C@H](CO)NC(=O)[C@@H](NC(=O)[C@H](Cc1ccccc1)NC(=O)[C@@H](NC(=O)CNC(=O)[C@H](CCC(N)=O)NC(=O)[C@H](CO)NC(=O)[C@@H](N)Cc1c[nH]cn1)[C@@H](C)O)[C@@H](C)O)C(C)C)[C@@H](C)O)C(C)C)C(=O)N[C@@H](CC(C)C)C(=O)N[C@@H](CO)C(=O)N[C@H](C(=O)O)[C@@H](C)O [Example 64, N^ε24-[(4S)-4-carboxy-4-[[2-[2-[2-[[2-[2-[2-[[(4S)-4-carboxy-4-[[(4S)-4-carboxy-4-(17-carboxyheptadecanoylamino)butanoyl]amino]butanoyl]amino]ethoxy]ethoxy]acetyl]amino]ethoxy]ethoxy]acetyl]amino]butanoyl]-[Val10,Arg12,Thr16,Glu21,Lys24,Leu27,Ser28]-Glucagon] (H-HSQGTFTSDVSRYLDTRRAQEFVK([γGlu-AEEA-AEEA-γGlu-γGlu-C18 diacid])WLLST-OH) | 9.75 | 5.1%

Source: patent US9486506B2 (Novo Nordisk A/S, priority 2011, dated 2016)
